Here are results for one compound from patent publication US20230241245A1, “Therapeutic Carbon Nanomaterial H2S Oxidants for Biological Polysulfide Synthesis” (The Texas A&M University System, priority 2020, published 2023).

The test system of the assay is bEnd.3 cells. The experiment in a line: SSP4 fluorescence photomicrographs of bEnd.3 cells with or without AP39 and PEG-OAC. In kind it is cell-based. The following applies: PEG-OACs 4 mg/L.

`O=C(CCCCCCCCC[P+](c1ccccc1)(c1ccccc1)c1ccccc1)Oc1ccc(-c2cc(=S)ss2)cc1.[Br-]` [AP39]: the “SSP4 fluorescence, agent alone relative to control” value is “increases the fluorescence signal”.
